Measurements published in patent US11919854B2, “P2RX7 modulators in therapy” (Centre national de la recherche scientifique, priority 2018, dated 2024).

Key:
[1] = Stability in mouse liver microsomes; assay type: in vitro ADME; conditions: 1 μM; 0, 5, 10, 20, 30 and 40 min; mass spectrometry
Method: A. HEI-2328 and -3090 are stable molecules. Mouse liver microsomes from BD Gentest (ref 5345001) were incubated with HEI-2314, -2328, -2333 and -3090 at 1 μM for 0, 5, 10, 20, 30 and 40 min. The stability of the compounds was assayed by mass spectrometry.
Stability was studied in the mouse liver microsome system—and human, not shown—(FIG. 13A) and directly in vivo, for HEI3090 molecule (FIG. 13B). These experiments highlighted that HEI3090 is found at a concentration of maximum 2.5 μM in the plasma of mice injected with HEI3090 (ip, 1.5 mg/kg in 10% DMSO).

B16F10 cells [2] = experiment: Syngeneic tumor mice model, B16F10 subcutaneous; assay type: in vivo, C57BL/6 mice
Method: 5×10^5 B16F10 cells were injected sub cutaneously in the right flank of C57BL/6 mice. Mice received HEI2328 (n=8, ip, 2.3 mg/kg in 10% DMSO/PBS) daily or placebo (n=8, 10% DMSO/PBS). A. incidence of tumor appearance B. Tumor size (mm2) and C. tumor weight at sacrifice day (J12). *, p<0.05 (Mann-Whitney test).
5×10^5 LLC or 5×10^5 B16F10 cells were injected sub cutaneously in the right flank of C57BL6 mice. Mice received HEI3090 (ip, 2.5 mg/kg in 10% DMSO/PBS) daily or placebo (10% DMSO/PBS). A,C. incidence of tumor appearance B,D. Tumor size (mm2) and tumor weight at sacrifice day (J12). E. HEI-treated tumors are more immunogenic. Expression of CMH1 (H2K^b/D^b) and PD-L1 by LLC (black) and B16F10 (grey) tumors is shown in dot plots. Numbers highlighted the percentage of tumor cells positive for H2K^b/D^b and PD-L1. […] F. CD-45 positive infiltrates is increased in LLC and B16F10 tumors. *, p<0.05; **, p<0.01; ***, p<0.001 Mann-Whitney test.
5×10^5 LLC or 5×10^5 B16F10 cells were injected sub cutaneously in the right flank of C57BL6 mice. Mice received HEI3090 (ip, 2.5 mg/kg in 10% DMSO/PBS) daily or placebo (10% DMSO/PBS). A. The quantity of immunosuppressive cells is reduced. Dot plot of representative experiment. Numbers highlighted the percentage of M-MDSC and PMN-MDSC. […] B. The quantity of effector T cells ([…], NK, CD4+) is increased.
Therefore the inventors tested this compound on a classical tumor mice model. 5×10^5 B16F10 cells (in 200 μl PBS) were injected subcutaneously in the right flank of C57B16 mice that received a daily intraperitoneal injection of 2.3 mg/kg HEI2328 (in PBS/10% DMSO) or placebo (PBS/10% DMSO) for 12 days. […] However, this encouraging result was not statistically significant.
4.2. By killing tumoral cells, HEI3090 may represent a new anti-tumor treatment. To test this hypothesis, immunocompetent C57B16J mice were subcutaneously injected with 5×10^5 B16F10 or 5×10^5 LLC (Lewis Lung Cancer) cells and treated daily with HEI3090 (ip, 2.5 mg/kg in 10% DMSO/PBS) or placebo (10% DMSO/PBS). […] In both tumor mice models, tumors weight in the treated group was reduced by 10-fold in the B16F10 model (8 mg vs 81 mg) and by 4-folds in the LLC model (80 mg vs 295 mg). Of interest, tumors from the HEI3090 treated group are more immunogenic than tumors from the placebo group.

[3] = Solubility (qualitative statement); assay type: physicochemical
[4] = tested on: B16F10 melanoma cell line; experiment: Large pore opening (Topro3) in B16F10 melanoma cell line; assay type: cell-based
Method: Calcium channel activity (Fluo4AM probe) and large pore opening (Topro3 probe) were analysed by FACS. Unstimulated (NS) or cells treated with HEI2328 (50 μM) alone or with BzATP (500 μM) were analysed. (A) Representative dots plots. Numbers highlighted the percentage of positive cells.
(§1) A. Large pore opening. Dot plot of representative experiment. Numbers highlighted the percentage of positive cells. […] B. representative curve of XTT absorbance over the time. […] Mean±SEM are shown. ***, p<0.001; ****, p<0.0001 Mann-Whitney test.
4.1. […] To test this hypothesis, immunocompetent C57B6J (Envigo, Gannat France) mice were injected with the melanoma cell line B16-F10.
(§2) Of interest, potentiation of large pore opening correlated with increased-B16F10 cell death, as illustrated in FIG. 9. Cells treated during 1 h with BzATP and HEI3090 incorporated 3-fold more Topro3 than cells treated with BzATP only (FIG. 9A). Longer incubation increased cell death, since it was observed up to 80% of dead cells after 3 h treatment (FIG. 9B).

B16F10 cells [5] = experiment: B16F10 cell death (XTT absorbance); assay type: cell-based, mouse; conditions: 3 h treatment with BzATP and HEI3090
Method: as §1, §2

LLC = LLC tumor growth, HEI3090 combined with anti-PD-1 checkpoint inhibitor; assay type: in vivo, C57BL6J mice
Method: b-g Effect of HEI3090 and anti PD-1 checkpoint inhibitor on LLC tumor growth. 5.105 LLC were injected s.c. into the flank of C57BL6J mice. Mice were treated i.p. with vehicle (PBS, 10% DMSO) or with HEI3090 (1.5 mg/kg in PBS, 10% DMSO) from day 1 to day 18. Each mouse received 200 μg of anti PD-1 i.p. at day 4.7.10.13 and 16. Tumor sizes were measured from day 1 to day 90. Mice were sacrificed when tumor reached 100 mm2. For contralateral re-challenge, cured mice or naive age matched C57BL6J mice were injected s.c. in the opposite flank with 2.105 LLC. At day 150, re-challenged treated mice or C57BL/6J naive mice were sacrificed to sort CD8+ T cells. 2.105 CD8+ T cells were adoptively transferred in other C57BL6J naive mice. Then mice were injected s.c with 2.105 LLC (b). Spaghetti plots of LLC tumor growth of vehicle and anti-PD-1 treated mice or HEI3090 and anti-PD-1 treated mice (c). Each curve represents one mouse. Survival curves of mice treated with vehicle or HEI3090 and isotype control or vehicle or HEI3090 and anti-PD-1 (d). Tumor growth and survival curves after re-challenge of cured mice treated with HEI3090 and anti-PD-1 or age matched C57BL/6J mice (e,f). Tumor growth after i.v. injection of CD8+ T cells from naïve mice or re-challenged treated mice (g).

SMILES: O=C(NCc1ccc(Cl)cc1Cl)[C@@H]1CCC(=O)N1C(=O)Nc1ccc(Cl)c(Cl)c1 [HEI2328, (S)—N^2-(2,4-Dichlorobenzyl)-N^1-(3,4-dichlorophenyl)-5-oxopyrrolidine-1,2-dicarboxamide]
- stability in mouse liver microsomes [1]: stable
- tumor incidence (B16F10 cells [2]; HEI2328 2.3 mg/kg ip daily, 12 days): delayed
- decrease of tumor growth (B16F10 cells [2]; HEI2328 2.3 mg/kg ip daily, 12 days, not statistically significant): 20%
- solubility [3]: poorly soluble
- increase of large pore opening (Topro3 positive cells) ([4]; HEI2328 50 μM added on BzATP (500 μM) treated cells): more than 6 fold
- toxic effect of compound alone ([4]; absence of BzATP, 50 μM): no toxic effect

SMILES: O=C(NCc1ccc(Cl)cc1Cl)[C@@H]1CCC(=O)N1C(=O)Nc1ccc(Cl)nc1 [HEI3090, (S)—N^1-(6-Chloropyridin-3-yl)-N^2-(2,4-dichlorobenzyl)-5-oxopyrrolidine-1,2-dicarboxamide]
- stability in mouse liver microsomes [1]: stable
- dead cells (B16F10 cells [5]): up to 80%
- immunosuppressive cells (M-MDSC) in tumor infiltrates (B16F10 cells [2]; HEI3090 ip 2.5 mg/kg daily): less M-MDSC
- tumors weight (B16F10 cells [2]; HEI3090 ip 2.5 mg/kg daily (placebo 81 mg)): 8 mg
- reduction of tumors weight (B16F10 cells [2]; HEI3090 ip 2.5 mg/kg daily, vs placebo): 10 fold
- solubility [3]: more soluble
- cure of tumor bearing mice (LLC; HEI3090 1.5 mg/kg ip day 1-18 combined with anti PD-1 200 μg ip): cured mice bearing tumors
- memory T cell response (LLC; HEI3090 combined with anti PD-1, re-challenge of cured mice): set up a memory T cell response
- Topro3 incorporation vs cells treated with BzATP only ([4]; 1 h with BzATP and HEI3090): 3 fold
